In a melting point compilation (Tetko et al.; mined from patent text by program, amines drawn as free bases though some values may be those of a salt):

SMILES | melting point [°C]
COc1cc(C(=O)c2csc(-c3ccncc3)n2)cc(OC)c1OC | 178 to 180
C=CC1(CC(=O)O)CC(C)(C)CC(C)(C)C1 | 92 to 94
Cc1cc(-c2noc(C(F)(F)F)n2)cc(C)c1OCCCc1ccc(=O)[nH]c1 | 128 to 130
OCCCc1conc1-c1ccc(Cl)c(F)c1 | 54 to 55
CC(C)(NS(=O)(=O)c1ccc(Oc2ccc(F)cc2)cc1)C(=O)NO | 133 to 134
CC(C)(C)N(NC(=O)c1cnccn1)C(=O)c1ccccc1 | 181 to 183
Cc1c(C)c2c(c(C)c1NC(=O)NCCCCO)C(c1ccc(C(C)C)cc1)CO2 (stereo not given) | 145 to 146
COC(=O)c1cc2c(s1)[C@@H](N1CCCCC1=O)[C@H](OCc1ccccc1)C(C)(C)O2 (relative stereo) | 144 to 145
Cc1cc(C)c(-n2c(C)cc(C)c(C#N)c2=O)cc1N | 218 to 219
COC(=N)c1sc2ccccc2c1O | 201
Cc1nc2c(-c3cccc(N4CCN(CCO)CC4)c3)cnn2c(N)c1-c1ccc(F)cc1 | 209 to 212
COc1cc(O)c2c(c1O)CC(C)=C(C)C2 | 200 to 201
Cc1cc(-c2cnn3c(C(F)(F)F)cc(-c4ccc(Cl)c(Cl)c4)nc23)ccn1 | 275
CCN1C(=O)C(C)(C)C(=O)N(C)c2cc(CN(CCn3ccc4sccc4c3=O)Cc3cccnc3COC)ccc21 | 119 to 122
Cc1nnc(-c2ccc3occ(C(=O)N4CCOCC4)c3c2)o1 | 168 to 169
C=CCNc1c(CO)cnc2cn(C)nc12 | 151 to 159
COc1ccc(N2CCN(CCn3c(=O)[nH]c4sccc4c3=O)CC2)cc1 | 249 to 251
O=[N+]([O-])c1ccc(N=Nc2cc(OCCO)c(N(CCCO)CCCO)cc2OCCO)cc1 | 132 to 134
Cc1nnc2ccc(-c3ccccc3Cl)nn12 | 146 to 148
N#CCCNC(=O)c1n[nH]cc1NC(=O)c1ccc(-c2ccccc2)o1 | 228 to 230

SMILES | melting point [°C]
CC(CCc1ccc(F)cc1)(Cn1ccnc1)Sc1cccc(Cl)c1Cl (stereo not given) | 131 to 132
CS(=O)(=O)NCc1ccc2[nH]cc(CC#N)c2c1 | 106 to 109
Cn1c(C(F)(F)F)cc(=O)n(-c2ccc(O)cc2F)c1=O | 185 to 190
Cc1[nH]c(-c2ccccc2)nc1CO | 197 to 199
O=P(Cc1ccccc1)(C1CCCCC1)C1CCCCC1 | 147 to 149
CC1(N)CN(c2cc3c(cc2F)c(=O)c(C(=O)O)cn3-c2ccc(F)cc2F)C1 | 210 to 216
CCN1CCN(c2ccc(Br)cc2)CC1 | 112
Nc1c(Cl)cc(-c2nn(C3CCN(CCCC(F)(F)F)CC3)c(=O)o2)c2c1OCCO2 | 188
O=C(O)Cc1nn(-c2ccccn2)c2[nH]c3ccccc3c(=O)c12 | 229 to 231
CC(C(N)=O)c1ccc2c(c1)CC(=O)c1ccccc1S2 (stereo not given) | 184 to 186
CC(C)c1onc(-c2c(Cl)cccc2Cl)c1COc1ccc(N(C)Cc2ccc(C(=O)O)cc2)c(C(F)(F)F)n1 | 96.1 to 97.1
O=C(Oc1c(Br)c(Br)c(Br)c(Br)c1Br)c1ccccc1CCl | 201 to 205
O=S1(=O)CCCN1Cc1ccncc1 | 82
CC(=O)C(C)Oc1cc(N)c(Cl)cc1C(=O)NCCN(C)C (stereo not given) | 124 to 125
CC(C)=Nn1c(C(F)(F)F)cc(=O)n(-c2cc(Oc3ccccc3[N+](=O)[O-])c(Cl)cc2F)c1=O | 173 to 176
COC(=O)C1=C(C)NC(C)=C(C(=O)CS(=O)(=O)N(C)C)C1c1cccc([N+](=O)[O-])c1 (stereo not given) | 154 to 157
CCc1nc2c(N)nc3ccccc3c2n1CCOCCNC(=O)Nc1ccccc1 | 141 to 144
O=S(=O)(Cl)c1cccc2c(I)cccc12 | 113 to 114
O=c1n(CCCCN2CCN(c3cccc(Cl)c3)CC2)nc2n1-c1ccccc1OC2 | 132 to 134
CN(C)C1Cc2cccc3ccn(c23)C1 (stereo not given) | 114 to 115
